These results are taken from US7645802B2 (Biovail Laboratories International SRL., priority 2005, dated 2010).

Counter-ions that a name gives are not always drawn. Marks after values point to notes of the source that are not given here. Some results are limits rather than exact numbers.

One data set in a line: moisture content by KF and pH (aq. 0.5%) of bupropion salts. The format is physicochemical. The note with it: salt as received. The method, then: The eight salts were first evaluated by HPLC, KF, pH and DSC for purity, water content, aqueous pH and possible polymorphs.
The salts were analyzed by DSC (at 10° C./min from 30° C. up to 400° C.) and the pH (aq. 0.5%), and the moisture content by KF were also measured. The TGA was performed on the HCl, maleate, tosylate and HBr salts.
Consider Bupropion Fumarate, for which the “moisture content KF” value was 0.09% and the “pH of the aqueous solution of 0.5%” value came out at 3.84.

A further data set is described as follows: Moisture content and pH of aqueous solutions of bupropion salts. In kind it is physicochemical. The note with it: After re crystallization (R&D), tested after 2 Months.
As for `CC(NC(C)(C)C)C(=O)c1cccc(Cl)c1.Cc1ccc(S(=O)(=O)O)cc1` (stereo not shown) [Bup-Tosylate], the “moisture content KF” value was found to be 0.18%.

The data set is the same for the next values; noted with them: After re crystallization (R&D), tested after 1 day.
For `CC(NC(C)(C)C)C(=O)c1cccc(Cl)c1.Cc1ccc(S(=O)(=O)O)cc1` (stereo not shown) [Bup-Tosylate], the “moisture content KF” value is 023% and the “pH (aq. 0.5%)” value stood at 5.88.

Still in this data set, the particulars now being: Original (Initial APIs).
`CC(NC(C)(C)C)C(=O)c1cccc(Cl)c1.O=C(O)CC(O)(CC(=O)O)C(=O)O` (stereo not shown) [Bup-Citrate (I)]: the “moisture content KF” value was found to be 0.23% and the “pH (aq. 0.5%)” value worked out at 3.89. For `Br.CC(NC(C)(C)C)C(=O)c1cccc(Cl)c1` (stereo not shown) [Bup-HBr], the “moisture content KF” value is given as 0.00%.

Consider `CC(NC(C)(C)C)C(=O)c1cccc(Cl)c1.Cl` (stereo not shown) [Bup-HCl], for which the “moisture content KF” value is 0.0% and the “pH (aq. 0.5%)” value came out at 5.90.

Take `CC(NC(C)(C)C)C(=O)c1cccc(Cl)c1.O=C(O)/C=C\C(=O)O` (stereo not shown) [Bup-Maleate]: the “moisture content KF” value amounted to 0.10% and the “pH (aq. 0.5%)” value is 4.29. The corresponding values for `CC(NC(C)(C)C)C(=O)c1cccc(Cl)c1.CC(NC(C)(C)C)C(=O)c1cccc(Cl)c1.O=C(O)C(O)C(O)C(=O)O` (stereo not shown) [Bup-Tartrate neutral] are 0.14% and 3.62. On to `CC(NC(C)(C)C)C(=O)c1cccc(Cl)c1.Cc1ccc(S(=O)(=O)O)cc1` (stereo not shown) [Bup-Tosylate], for which the “moisture content KF” value is 1.71* % and the “pH (aq. 0.5%)” value is recorded as 5.56.

A short description of the next data set: stability of polymorphic forms I, II, III by PXRD under ICH conditions. The format is physicochemical. The following applies: 40° C., 75% R.H. (b1144 also 25° C./60% RH), 3 months and 6 months; hydrobromide. The method, then: It is well known that organic molecules can crystallize into solid forms. Moreover the same organic compound may assume different crystalline arrangements in solid form, depending on the conditions under which the crystal product is formed. This phenomenon is commonly known as polymorphism. A study was undertaken to explore the polymorphic forms of bupropion hydrobromide. The crystal forms of the products obtained in this study were determined by powder X-ray diffraction (PXRD). A RIGAKU miniflex instrument (Radiation Cu Koc, generator 30 KV, filter Ni) was used to obtain the PXRD data.
The three polymorphic forms were subjected to stability testing. Samples of the polymorphic forms were subjected to ICH conditions (40° C., 75% R.H.) and PXRD data was obtained at 3 months and 6 months. […] Samples of the polymorphic forms II and III were tested after 1 month under the same accelerated stability conditions.
Samples of bupropion HBr form I were subjected to the conditions for the accelerated stability study as described in Example 10 and the shelf life stability study as described in Example 11.
10 g of bupropion HBr form I were dissolved in a mixture of 170 ml of acetone and 7 ml of water. The mixture was brought to reflux with dissolution of the solid. The solution was then cooled to room temperature. After one night the precipitate formed was filtered and dried at 40° C. under vacuum (30 mmHg) for 12 hours. 2.4 g of bupropion HBr form II were obtained. […] The crystalline form was checked after maintaining the product under these conditions for 1 month.
The mixture was brought to reflux obtaining complete dissolution of the solid. The solution was then cooled to room temperature without stirring and left in these conditions for 18 hours. The resulting crystalline solid was then filtered and dried under vacuum (30 mmHg) at 50° C. for 4 hours. 11.2 g of bupropion HBr form III were obtained. A sample of the product was prepared for stability testing by sealing the product in polyethylene bags, which in turn were placed in aluminium bags containing silica and sealed, and placed in the stability chamber in ICH conditions (40° C./75% R.H.). The crystalline form was checked after maintaining the product in these conditions for 1 month.
As for `CC(NC(C)(C)C)C(=O)c1cccc(Cl)c1` (stereo not shown) [bupropion HBr form I, bupropion hydrobromide], the “PXRD profile after storage (polymorph stability)” value (“PXRD profile after storage” below) was “gave the same results”.

Staying with this data set, now noted: 40° C., 75% R.H. (b1144 also 25° C./60% RH), 3 months and 6 months; listed as polymorphic form I, hydrobromide.
For `CC(NC(C)(C)C)C(=O)c1cccc(Cl)c1` (stereo not shown) [bupropion HBr form I, bupropion hydrobromide], the “PXRD profile after storage” value is given as “same PXRD profile”.

The same data set, now with this note: ICH conditions 40° C./75% R.H., 1 month; hydrobromide.
Consider `CC(NC(C)(C)C)C(=O)c1cccc(Cl)c1` (stereo not shown) [bupropion HBr form II, bupropion hydrobromide], for which the “PXRD profile after storage” value is recorded as “still in form II”. Still for that read-out and setting: the entry for `CC(NC(C)(C)C)C(=O)c1cccc(Cl)c1` (stereo not shown) [bupropion HBr form III, bupropion hydrobromide] is “not stable in this form under these conditions”.

The data set is the same for the next values; noted with them: ICH conditions 40° C./75% R.H., 1 month; listed as Polymorphic form II, hydrobromide.
For the compound `CC(NC(C)(C)C)C(=O)c1cccc(Cl)c1` (stereo not shown) [bupropion HBr form II, bupropion hydrobromide], the “PXRD profile after storage” value is recorded as “no change in the PXRD profile”.

The data set is the same for the next values; noted with them: ICH conditions 40° C./75% R.H., 1 month; listed as form III, hydrobromide.
In the case of `CC(NC(C)(C)C)C(=O)c1cccc(Cl)c1` (stereo not shown) [bupropion HBr form III, bupropion hydrobromide], the “PXRD profile after storage” value is recorded as “conversion to form II”.

The nature of a further data set: forced degradation stability study of bupropion salts in vials, 40 degrees C./75% RH, HPLC assay and impurities.
Conditions: not given
For the compound Bupropion Fumarate, the “In IPA/EtOH, 3-CBZ: order of impurity content” value is on record as “maleate > HBr > HCl > Fumarate”; the “In IPA/EtOH, 852U77: order of impurity content” value is reported as “fumarate > HBr ≈HCl ≈maleate ≈tosylate”; the “In IPA/EtOH, Total imp.: order of impurity content” value is recorded as “fumarate > maleate > HBr > HCl > tosylate”; the “In water, 3-CBZ: order of impurity content” value is reported as “HCl > HBr≈maleate≈fumarate”. In addition, the “In water, 852U77: order of impurity content” value is reported as “fumarate > HBr > maleate > HCl” and the “In water, Total imp.: order of impurity content” value is “fumarate > HBr > HCl > tosylate > maleate”.

Experiment in the next data set: not given
The following applies: Ionic Surfactants (Table 98); cited from earlier work.
Turning to `CCCCCCCCCCCCOS(=O)(=O)[O-].[Na+]` [Sodium lauryl sulfate (dodecyl)], the HLB was 40. Turning to `CCCCCCCC/C=C\CCCCCCCC(=O)[O-].[Na+]` [Sodium oleate], the HLB is given as 18.

The same data set, now with this note: Lower Alcohol Fatty Acid Ester Surfactants (Table 97); cited from earlier work.
As for `CCCCC/C=C\C/C=C\CCCCCCCC(=O)OCC` [Ethyl linoleate], the HLB is under 10. For the compound `CCCCCCCC/C=C\CCCCCCCC(=O)OCC` [Ethyl oleate], the HLB is reported as under 10.

Regarding `CCCCC/C=C\C/C=C\CCCCCCCC(=O)OC(C)C` [Isopropyl linoleate], the HLB was under 10. For `CCCCCCCCCCCCCC(=O)OC(C)C` [Isopropyl myristate], the HLB is recorded as under 10.

The same data set, now with this note: Mono- and Diglyceride Surfactants (Table 89); cited from earlier work.
Take `CCCCC/C=C\C/C=C\CCCCCCCC(=O)OCC(O)CO` (stereo not shown) [Glycerol monolinoleate]: the HLB is given as 3-4. For `CCCCCCCCCCCCCCCC(=O)OCC(O)CO` (stereo not shown) [Glycerol monopalmitate], the HLB was 4.

Consider `CCCCCCCCCCCCCCCCCC(=O)OCC(O)CO` (stereo not shown) [Glycerol monostearate], for which the HLB is 5-9.

Take `CC(=O)OCC(O)CO` (stereo not shown) [Glyceryl acetate]: the HLB is reported as under 10. Take `CCCCCCCC(=O)OCC(O)CO` (stereo not shown) [Glyceryl caprylate]: the HLB is given as 5-6. `CCCCCCCCCCCC(=O)OCC(O)CO` (stereo not shown) [Glyceryl laurate]: the HLB was 4. Turning to `CCCCCCCCCCCC(=O)OCC(O)CO` (stereo not shown) [Glyceryl monolaurate], the HLB is 6.8. As for `CCCCCCCCCCCCCC(=O)OCC(O)CO` (stereo not shown) [Glyceryl monomyristate (C14)], the HLB is 3-4. Take `CCCCCCCC/C=C\CCCCCCCC(=O)OCC(O)CO` (stereo not shown) [Glyceryl monooleate (C18:1)]: the HLB is 3-4. In the case of `CCCCCC[C@@H](O)C/C=C\CCCCCCCC(=O)OCC(O)CO` (stereo partly shown) [Glyceryl ricinoleate], the HLB is reported as 6.

As to `CCCCCCCCCC(=O)OCC(O)CO` (stereo not shown) [Monocaprin], the HLB was under 10. Consider `CCCCCC(=O)OCC(O)CO` (stereo not shown) [Monocaproin (C6)], for which the HLB is given as under 10.

With `CCCCCCCC(=O)OCC(O)CO` (stereo not shown) [Monocaprylin], the HLB is under 10. Consider `CCCCCCCC/C=C/CCCCCCCC(=O)OCC(O)CO` (stereo not shown) [Monoelaidin (C18:1)], for which the HLB is on record as under 10. As to `CCCCCCCCCCCC(=O)OCC(O)CO` (stereo not shown) [Monolaurin], the HLB is under 10. Caprylic/capric glycerides: the HLB is listed as under 10. Take Distearin: the HLB is under 10. For Glycerol monooleate/linoleate, the HLB is given as 3-4. With Glyceryl dioleate, the HLB is 3-4.

With Glyceryl mono-, dioleate, the HLB is listed as under 10. Take Glyceryl palmitic/stearic: the HLB is on record as under 10.

For Mono-and diacetylated monoglycerides, the HLB is recorded as 3.8-4.

Still in this data set, the particulars now being: Polyethylene Glycol Alkyl Ethers (Table 92); cited from earlier work.
PEG-3 oleyl ether: the HLB is listed as under 10. As for PEG-4 lauryl ether, the HLB is 9.7. Consider PEG-5 oleyl ether, for which the HLB is reported as under 10.

Still in this data set, the particulars now being: Sorbitan Fatty Acid Ester Surfactants (Table 96); cited from earlier work.
For the compound `CCCCCCCCCCCCCCCC(=O)OC[C@@H](O)[C@H]1OC[C@H](O)[C@H]1O` [Sorbitan monopalmitate], the HLB was 6.7. Sorbitan monoisostearate: the HLB is listed as 4.7.

Consider Sorbitan monooleate, for which the HLB is recorded as 4.3.

Turning to Sorbitan monostearate, the HLB is recorded as 4.7. Take Sorbitan sesquistearate: the HLB was 4.2. For Sorbitan trioleate, the HLB is on record as 4.3.

Staying with this data set, now noted: Sterol and Sterol Derivative Surfactants (Table 90); cited from earlier work.
Turning to PEG-5 soya sterol, the HLB is under 10.

With PEG-10 soya sterol, the HLB is recorded as under 10.

Consider PEG-20 soya sterol, for which the HLB was under 10.

Regarding PEG-24 cholesterol ether, the HLB is over 10.

Consider PEG-25 phyto sterol, for which the HLB is reported as over 10. Take PEG-30 cholestanol: the HLB is recorded as over 10.

Take PEG-30 soya sterol: the HLB is over 10. In the case of Phytosterol, the HLB is listed as under 10.

Staying with this data set, now noted: Sugar Ester Surfactants (Table 93); cited from earlier work.
Sucrose dipalmitate: the HLB is 7.4. Sucrose distearate: the HLB was 3.

Take Sucrose monopalmitate: the HLB was over 10.
